# Results reported in PMC6694155, “PTPσ inhibitors promote hematopoietic stem cell regeneration” (Nature Communications, 2019).
# Where “and” joins values, the source holds several entries; their conditions need not be identical. Equal entries are not always repeated.
# Legend:
# BM KSL cells [1] = assay: Cell cycle analysis (Ki67/7AAD) of BM KSL cells; assay type: cell-based, mouse; details: BM KSL cells following irradiation
# Method: (§1) Eight- to ten-week-old female C57BL/6 mice were irradiated with 500 cGy TBI followed by subcutaneous injections of 5 mg/kg DJ001 or vehicle, or 5 mg/kg DJ001 plus 40 mg/kg EHT1864. Twenty four hours after irradiation, mice were killed to collect BM cells for Annexin V apoptosis analysis. BM cells were stained with APC-Cy7-conjugated anti-mouse Sca1 (BD Biosciences, #560654, 1:100), PE-conjugated anti-ckit (BD Biosciences, #553355, 1:100), and V450 lineage cocktail (BD Biosciences, #561301, 1:10) antibodies for 30 min at 4 °C. Cells were then resuspended in 1× Annexin V binding buffer and then stained with FITC-conjugated anti-Annexin V antibody (BD Biosciences, #556547,1:50) and 7AAD antibody (BD Biosciences, #559925, 1:40)[68]. For in vitro human BM cell apoptosis assays, isolated human BM CD34^+ cells were plated into 96-well plates and then irradiated with 300 cGy. Immediately after irradiation, cells were treated with 5 μg/mL DJ001 or vehicle for 24 h and then collected for Annexin V cell apoptosis analysis. For cell cycle analysis, BM KSL cells were irradiated at 300 cGy and then treated with 1 μg/mL DJ001 or vehicle for 36 h. Subsequently, cells were resuspended in 200 μL of PBS, fixed with 1 mL of ice-cold fixation solution (0.25% Saponin, 2.5% PFA, 2% fetal calf serum (FCS) in PBS), and incubated for 30 min on ice. Cells were washed in Saponin buffer (0.25% Saponin, 2% FCS in PBS) and resuspended in 200 μL of Saponin buffer containing 20 μL of FITC-conjugated anti-Ki67 antibody (BD Biosciences, #556026, 1:10) and 1 μL of RNase (Qiagen, #19101, 100 mg/mL). After 30 min of incubation, cells were washed in Saponin buffer and resuspended for flow analysis in 200 μL of Saponin buffer containing 5 μL 7AAD (BD Biosciences, #559925, 1:40).
# BM KSL cells [2] = assay: CFC assay from 300 cGy-irradiated BM KSL cells, 3 day culture; assay type: cell-based, mouse; parameters: CFU-GM / BFU-E: unit not given here
# Method: CFC assays (colony-forming unit-granulocyte monocyte), burst-forming unit-erythroid, and CFU-GEMM were performed using MethoCult GF M3434 (Stemcell Technologies)[6]. […] Recombinant mouse SCF, Flt3 ligand, and TPO were purchased from R&D Systems. For competitive repopulation assays, BM cells were isolated from donor 10–12-week-old female CD45.2^+ mice. Recipient 10-week-old female CD45.1^+ B6.SJL mice were irradiated with 950 cGy TBI using a Cs137 irradiator and donor BM cells were administered via tail vein injection along with a competing dose of 1 × 10^5 non-irradiated host BM cells. Multilineage donor hematopoietic cell engraftment was measured in the PB by flow cytometry.
# BM KSL cells [3] = assay: Annexin V/7AAD apoptosis assay of BM KSL cells from mice 24 h post 500 cGy TBI; assay type: in vivo, mouse
# Method: as §1
# p-PAK1 in BM KSL cells = assay: p-PAK1 phospho-flow cytometry of BM KSL cells; assay type: cell-based, mouse; details: BM KSL cells, DJ001 + 6 μg/mL EHT1864
# Method: (§2) Intracellular flow cytometric analysis was performed on irradiated (300 cGy) or non-irradiated, sorted KSL cells after treatment with 1 μg/mL DJ001 or control (equal volumes of DMSO) for 24 h. At 24 h after irradiation, cells were fixed with 4% PFA for 10 min, followed by permeabilization using 0.25% saponin in PBS. Cells were washed again and stained with antibody at the recommended concentrations for 30 min at RT. Intracellular antibodies and phospho-flow antibodies used were as follows: FITC-conjugated anti-BCL-XL (Abcam, #26148, 1:100), active RAC1-GTP antibody (NewEast Biosciences, #26903, 1:100) and anti-PAK1 (phospho S144) + PAK2 (phospho S141) + PAK3 (phospho S154) antibody (Abcam, #40795, 1:100), and FITC-conjugated goat anti-rabbit IgG H&L (Abcam, #97050, 1:200).
# C57BL/6 mice = assay: Survival study after 750 cGy TBI; assay type: in vivo, mouse; details: 750 cGy, systemic EHT1864
# Method: For survival studies, 10-week-old female C57BL/6 mice were irradiated with 750 cGy TBI, which is lethal for ~50% of C57BL/6 mice by day + 30 (LD50/30), using a Shepherd Cesium-137 irradiator. Twenty four hours post irradiation, mice were administered daily subcutaneous injections of 5 mg/kg DJ001 or DJ009, or vehicle in a volume of 100 μL for 10 days. DJ001 or DJ009 injections were prepared in PBS, 0.5% Tween 80, and 10% DMSO. Corresponding vehicle injections contained PBS, 10% DMSO, and 0.5% Tween 80. PB complete blood counts were measured using a Hemavet 950 instrument (Drew Scientific) at day + 10 post irradiation. For hematopoietic analysis, BM cells were collected at day + 10 post irradiation. To study whether DJ001 increased survival rates through activation of RAC signaling, the RAC inhibitor, EHT1864 (Selleckchem), was dissolved in PBS and administered intraperitoneally, 40 mg/kg every other day, to 750 cGy-irradiated mice until day + 10.
# catalytic domain of PTPσ = test system: catalytic domain of PTPσ; parameters: method as in PMID 23185579; details: cited from earlier work
# BCL-XL in BM KSL cells = assay: BCL-XL protein intracellular flow cytometry of BM KSL cells; assay type: cell-based, mouse; details: BM KSL cells, 24 hours following 300 cGy, 43 ng/ml BVD523
# Method: as §2
smiles,measurement,setting,value
"COc1ccc2c(c1)/C(=C/c1cnc[nH]1)C(=O)N2 [SU9516, reference compound]",effect on DJ001-mediated induction of cell cycle progression,BM KSL cells [1],suppressed DJ001-mediated induction of cell cycle progression
"O=c1cc(CN2CCOCC2)occ1OCCCCCSc1ccnc2cc(C(F)(F)F)ccc12 [EHT1864, reference compound]",effect on DJ001-mediated CFC generation,"BM KSL cells [2]; BM KSL cells irradiated with 300 cGy in vitro, 6 µg/ml EHT1864",inhibited DJ001-mediated CFC generation
same,BFU-E,BM KSL cells [2]; Supplementary Figure 7d,1 and 2
same,CFU-GM,BM KSL cells [2]; Supplementary Figure 7d,9 and 6 and 11 and 10 and 12
same,Figure 3e: Annexin V/7AAD apoptosis of BM KSL cells,"BM KSL cells [3]; 24 h post 500 cGy TBI, individual mice",24.85 and 19.31 and 21.21 and 22.28
same,effect on DJ001-mediated anti-apoptotic effects on BM KSL cells,BM KSL cells [3]; irradiated mice,abrogated DJ001-mediated anti-apoptotic effects
same,effect on DJ001-mediated phosphorylation of PAK1,p-PAK1 in BM KSL cells,abrogated DJ001-mediated phosphorylation of PAK1
same,effect on DJ001-mediated induction of cell cycle progression,BM KSL cells [1],suppressed DJ001-mediated induction of cell cycle progression
same,effect on DJ001-mediated increase in survival of irradiated mice,C57BL/6 mice,completely blocked DJ001-mediated increase in survival
"O=C(/C=C\Nc1cc([N+](=O)[O-])ccc1O)c1ccc(Cl)c(Cl)c1 [compound 5075, reference compound]",reported properties against the catalytic domain of PTPσ,catalytic domain of PTPσ,binding and inhibitory properties
"CC(C)Nc1cc(-c2c[nH]c(C(=O)N[C@H](CO)c3cccc(Cl)c3)c2)c(Cl)cn1 [BVD523, reference compound]",effect on DJ001-mediated increase in BCL-XL protein levels,BCL-XL in BM KSL cells,blocked DJ001-mediated increase in BCL-XL protein levels
same,effect on hematopoietic progenitor cell recovery following irradiation,"BM KSL cells [2]; DJ001 + 43 ng/mL BVD523, 300 cGy, day +3",abrogated hematopoietic progenitor cell recovery
